Source: patent publication US7138361B2, “Herbicidal heterocycles” (E. I. du Pont de Nemours and Company, priority 2000, dated 2006)

Columns and labels:
Assay type in all cases: in vivo
[1] = system: smallflower flatsedge (Cyperus difformis); experiment: Test C flooded paddy test; settings: for Flatsedge plant response rating: Flooded Paddy, scale 0 to 100, 0 no effect, 100 complete control; for Plant response rating, Flatsedge: flooded paddy test, scale 0 to 100 (0 no effect, 100 complete control)
Experimental: (§1) At the same time, plants selected from these crop and weed species and also winter barley (Hordeum vulgare), blackgrass (Alopecurus myosuroides), canary grass (Phalaris minor), chickweed (Stellaria media), downy brome (Bromus tectorum), green foxtail (Setaria viridis), Italian ryegrass (Lolium multiflorum), wheat (Triticum aestivum), wild oat (Avena fatua) and windgrass (Apera spica-venti) were treated with postemergence applications of some of the test chemicals formulated in the same manner. Plants ranged in height from 2 to 18 cm (1- to 4-leaf stage) for postemergence treatments. Plant species in the flooded paddy test consisted of rice (Oryza saliva), smallflower flatsedge (Cyperus difformis), duck salad (Heteranthera limosa) and barnyardgrass (Echinochloa crus-galli) grown to the 2-leaf stage for testing. Treated plants and controls were maintained in a greenhouse for 12 to 14 days, after which time all species were compared to controls and visually evaluated. Plant response ratings, summarized in Table C, are based on a scale of 0 to 100 where 0 is no effect and 100 is complete control. A dash (-) response means no test result.

rice (Oryza saliva) [2] = experiment: Test C flooded paddy test; settings: for Rice plant response rating: Flooded Paddy, scale 0 to 100, 0 no effect, 100 complete control; for Plant response rating, Rice: flooded paddy test, scale 0 to 100 (0 no effect, 100 complete control)
Experimental: as §1

[3] = system: barnyardgrass (Echinochloa crus-galli); experiment: Test C flooded paddy test; settings: for Barnyardgrass plant response rating: Flooded Paddy, scale 0 to 100, 0 no effect, 100 complete control; for Plant response rating, Barnyardgrass: flooded paddy test, scale 0 to 100 (0 no effect, 100 complete control)
Experimental: as §1

[4] = system: duck salad (Heteranthera limosa); experiment: Test C flooded paddy test; settings: for Ducksalad plant response rating: Flooded Paddy, scale 0 to 100, 0 no effect, 100 complete control; for Plant response rating, Ducksalad: flooded paddy test, scale 0 to 100 (0 no effect, 100 complete control)
Experimental: as §1

rice (Oryza saliva) [5] = experiment: Test B preemergence
Excerpt: (§2) Seeds selected from barnyardgrass (Echinochloa crus-galli), Surinam grass (Brachiaria decumbens), cocklebur (Xanthium strumarium), corn (Zea mays), crabgrass (Digitaria sanguinalis), giant foxtail (Setaria faberii), lambsquarters (Chenopodium album), morning glory (Ipomoea hederacea), pigweed (Amaranthus retroflexus), rice (Oryza saliva) and velvetleaf (Abutilon theophrasti) were planted and treated preemergence with test chemicals formulated in a non-phytotoxic solvent mixture which included a surfactant.
(§3) At the same time, plants selected from these crop and weed species and also blackgrass (Alopecurus myosuroides), wheat (Triticum aestivum) and wild oat (Avena fatua) were treated with postemergence applications of test chemicals formulated in the same manner. Plants ranged in height from 2 to 18 cm (1- to 4-leaf stage) for postemergence treatments. Plant species in the flooded paddy test consisted of rice (Oryza saliva), smallflower flatsedge (Cyperus difformis), duck salad (Heteranthera limosa) and barnyardgrass (Echinochloa crus-galli) grown to the 2-leaf stage for testing. Treated plants and controls were maintained in a greenhouse for 13 to 15 days, after which time all species were compared to controls and visually evaluated. Plant response ratings, summarized in Table B, are based on a scale of 0 to 100 where 0 is no effect and 100 is complete control. A dash (-) response means no test result.

[6] = system: pigweed (Amaranthus retroflexus); experiment: Test B preemergence
Excerpt: as §2, §3

[7] = system: morning glory (Ipomoea hederacea); experiment: Test B preemergence
Excerpt: as §2, §3

[8] = system: lambsquarters (Chenopodium album); experiment: Test B preemergence
Excerpt: as §2, §3

[9] = system: barnyardgrass (Echinochloa crus-galli); experiment: Test B preemergence
Excerpt: as §2, §3

[10] = system: giant foxtail (Setaria faberii); experiment: Test B preemergence
Excerpt: as §2, §3

[11] = system: Surinam grass (Brachiaria decumbens); experiment: Test B preemergence
Excerpt: as §2, §3

[12] = system: crabgrass (Digitaria sanguinalis); experiment: Test B preemergence
Excerpt: as §2, §3

[13] = system: cocklebur (Xanthium strumarium); experiment: Test B preemergence
Excerpt: as §2, §3

[14] = system: velvetleaf (Abutilon theophrasti); experiment: Test B preemergence
Excerpt: as §2, §3

corn (Zea mays) [15] = experiment: Test B preemergence
Excerpt: as §2, §3

[16] = system: blackgrass (Alopecurus myosuroides); experiment: Test B postemergence; settings: 13 to 15 days
Excerpt: as §2, §3

[17] = system: pigweed (Amaranthus retroflexus); experiment: Test B postemergence; settings: Rate 500 g/ha, scale 0 to 100, 0 is no effect, 100 is complete control, 13 to 15 days
Excerpt: as §2, §3

[18] = system: wheat (Triticum aestivum); experiment: Test B postemergence; settings: Rate 500 g/ha, scale 0 to 100, 0 is no effect, 100 is complete control, 13 to 15 days
Excerpt: as §2, §3

[19] = system: morning glory (Ipomoea hederacea); experiment: Test B postemergence; settings: Rate 500 g/ha, scale 0 to 100, 0 is no effect, 100 is complete control, 13 to 15 days
Excerpt: as §2, §3

[20] = system: lambsquarters (Chenopodium album); experiment: Test B postemergence; settings: Rate 500 g/ha, scale 0 to 100, 0 is no effect, 100 is complete control, 13 to 15 days
Excerpt: as §2, §3

[21] = system: barnyardgrass (Echinochloa crus-galli); experiment: Test B postemergence; settings: 13 to 15 days
Excerpt: as §2, §3

[22] = system: giant foxtail (Setaria faberii); experiment: Test B postemergence; settings: 13 to 15 days
Excerpt: as §2, §3

[23] = system: Surinam grass (Brachiaria decumbens); experiment: Test B postemergence; settings: 13 to 15 days
Excerpt: as §2, §3

[24] = system: crabgrass (Digitaria sanguinalis); experiment: Test B postemergence; settings: 13 to 15 days
Excerpt: as §2, §3

[25] = system: velvetleaf (Abutilon theophrasti); experiment: Test B postemergence; settings: Rate 500 g/ha, scale 0 to 100, 0 is no effect, 100 is complete control, 13 to 15 days
Excerpt: as §2, §3

corn (Zea mays) [26] = experiment: Test B postemergence; settings: 13 to 15 days
Excerpt: as §2, §3

wild oat (Avena fatua) = experiment: Test B postemergence; settings: Rate 500 g/ha, scale 0 to 100, 0 is no effect, 100 is complete control, 13 to 15 days
Excerpt: as §2, §3

[27] = Preemergence, Rate 500 g/ha, scale 0 to 100, 0 no effect, 100 complete control
[28] = preemergence, Rate 125 g/ha, scale of 0 to 100 where 0 is no effect and 100 is complete control, 13 to 15 days
[29] = Rate 125 g/ha, scale 0 (no effect) to 100 (complete control)
[30] = Rate 500 g/ha, scale 0 to 100, 0 is no effect, 100 is complete control

## CC(C)(C)c1ccn(C2CCN(c3cccc(S(C)(=O)=O)c3)C2=O)n1 (stereo not drawn) [Compound 102]
[1]; Rate 250 g/ha
  Flatsedge plant response rating: 30
[1]; Rate 500 g/ha
  Flatsedge plant response rating: 60
[1]; Rate 62 g/ha
  Plant response rating, Flatsedge: 0
[1]; Rate 125 g/ha
  Plant response rating, Flatsedge: 30
Rice (Oryza saliva) [2]; Rate 250 g/ha
  Rice plant response rating: 0
Rice (Oryza saliva) [2]; Rate 500 g/ha
  Rice plant response rating: 0
Rice (Oryza saliva) [2]; Rate 62 g/ha
  Plant response rating, Rice: 0
Rice (Oryza saliva) [2]; Rate 125 g/ha
  Plant response rating, Rice: 0
[3]; Rate 250 g/ha
  Barnyardgrass plant response rating: 0
[3]; Rate 500 g/ha
  Barnyardgrass plant response rating: 0
[3]; Rate 62 g/ha
  Plant response rating, Barnyardgrass: 0
[3]; Rate 125 g/ha
  Plant response rating, Barnyardgrass: 0
[4]; Rate 250 g/ha
  Ducksalad plant response rating: 0
[4]; Rate 500 g/ha
  Ducksalad plant response rating: 0
[4]; Rate 62 g/ha
  Plant response rating, Ducksalad: 0
[4]; Rate 125 g/ha
  Plant response rating, Ducksalad: 0
Rice (Oryza saliva) [5]; [27]
  Plant response rating, Rice: 0
Rice (Oryza saliva) [5]; [28]
  Plant response rating, Rice: 0
[6]; [27]
  Plant response rating, Pigweed: 0
[6]; [28]
  Plant response rating, Pigweed: 0
[7]; [27]
  Plant response rating, Morningglory: 0
[7]; [28]
  Plant response rating, Morningglory: 0
[8]; [27]
  Plant response rating, Lambsquarters: 0
[8]; [28]
  Plant response rating, Lambsquarters: 0
[9]; [27]
  Plant response rating, Barnyardgrass: 0
[9]; [28]
  Plant response rating, Barnyardgrass: 0
[10]; [27]
  Plant response rating, Foxtail, Giant: 0
[10]; [28]
  Plant response rating, Foxtail, Giant: 0
[11]; [27]
  Plant response rating, Surinam grass: 0
[11]; [28]
  Plant response rating, Surinam grass: 0
[12]; [27]
  Plant response rating, Crabgrass: 90
[12]; [28]
  Plant response rating, Crabgrass: 0
[13]; [27]
  Plant response rating, Cocklebur: 0
[13]; [28]
  Plant response rating, Cocklebur: 0
[14]; [27]
  Plant response rating, Velvetleaf: 0
[14]; [28]
  Plant response rating, Velvetleaf: 0
Corn (Zea mays) [15]; [27]
  Plant response rating, Corn: 0
Corn (Zea mays) [15]; [28]
  Plant response rating, Corn: 0
[16]; [29]
  Plant response rating, Blackgrass: 0
[16]; [30]
  Plant response rating, Blackgrass: 0
[17]
  Plant response rating, Pigweed: 0
[18]
  Plant response rating, Wheat: 0
[19]
  Plant response rating, Morningglory: 0
[20]
  Plant response rating, Lambsquarters: 0
[21]; [29]
  Plant response rating, Barnyardgrass: 0
[21]; [30]
  Plant response rating, Barnyardgrass: 0
[22]; [29]
  Plant response rating, Foxtail, Giant: 0
[22]; [30]
  Plant response rating, Foxtail, Giant: 0
[23]; [29]
  Plant response rating, Surinam grass: 0
[23]; [30]
  Plant response rating, Surinam grass: 0
[24]; [29]
  Plant response rating, Crabgrass: 0
[24]; [30]
  Plant response rating, Crabgrass: 0
[25]
  Plant response rating, Velvetleaf: 0
Corn (Zea mays) [26]; [29]
  Plant response rating, Corn: 0
Corn (Zea mays) [26]; [30]
  Plant response rating, Corn: 0
Wild oat (Avena fatua)
  Plant response rating, Wild Oat: 0

## CCCCC(C)c1ccn(C2SCN(c3cccc(C(F)(F)F)c3)C2=O)n1 (stereo not drawn) [Compound 103]
[1]; Rate 250 g/ha
  Flatsedge plant response rating: 100
[1]; Rate 500 g/ha
  Flatsedge plant response rating: 100
[1]; Rate 62 g/ha
  Plant response rating, Flatsedge: 0
[1]; Rate 125 g/ha
  Plant response rating, Flatsedge: 80
Rice (Oryza saliva) [2]; Rate 250 g/ha
  Rice plant response rating: 20
Rice (Oryza saliva) [2]; Rate 500 g/ha
  Rice plant response rating: 20
Rice (Oryza saliva) [2]; Rate 62 g/ha
  Plant response rating, Rice: 0
[3]; Rate 250 g/ha
  Barnyardgrass plant response rating: 20
[3]; Rate 500 g/ha
  Barnyardgrass plant response rating: 40
[3]; Rate 62 g/ha
  Plant response rating, Barnyardgrass: 0
[3]; Rate 125 g/ha
  Plant response rating, Barnyardgrass: 0
[4]; Rate 250 g/ha
  Ducksalad plant response rating: 0
[4]; Rate 500 g/ha
  Ducksalad plant response rating: 90
[4]; Rate 62 g/ha
  Plant response rating, Ducksalad: 0
[4]; Rate 125 g/ha
  Plant response rating, Ducksalad: 0
Rice (Oryza saliva) [5]; [27]
  Plant response rating, Rice: 0
Rice (Oryza saliva) [5]; [28]
  Plant response rating, Rice: 0
[6]; [27]
  Plant response rating, Pigweed: 0
[6]; [28]
  Plant response rating, Pigweed: 0
[7]; [27]
  Plant response rating, Morningglory: 0
[7]; [28]
  Plant response rating, Morningglory: 0
[8]; [27]
  Plant response rating, Lambsquarters: 100
[8]; [28]
  Plant response rating, Lambsquarters: 100
[9]; [27]
  Plant response rating, Barnyardgrass: 0
[9]; [28]
  Plant response rating, Barnyardgrass: 0
[10]; [27]
  Plant response rating, Foxtail, Giant: 0
[10]; [28]
  Plant response rating, Foxtail, Giant: 0
[11]; [27]
  Plant response rating, Surinam grass: 0
[11]; [28]
  Plant response rating, Surinam grass: 0
[12]; [27]
  Plant response rating, Crabgrass: 60
[12]; [28]
  Plant response rating, Crabgrass: 0
[13]; [27]
  Plant response rating, Cocklebur: 0
[13]; [28]
  Plant response rating, Cocklebur: 0
[14]; [27]
  Plant response rating, Velvetleaf: 0
[14]; [28]
  Plant response rating, Velvetleaf: 0
Corn (Zea mays) [15]; [27]
  Plant response rating, Corn: 0
Corn (Zea mays) [15]; [28]
  Plant response rating, Corn: 0
[16]; [29]
  Plant response rating, Blackgrass: 0
[16]; [30]
  Plant response rating, Blackgrass: 0
[17]
  Plant response rating, Pigweed: 0
[18]
  Plant response rating, Wheat: 0
[19]
  Plant response rating, Morningglory: 0
[20]
  Plant response rating, Lambsquarters: 50
[21]; [29]
  Plant response rating, Barnyardgrass: 0
[21]; [30]
  Plant response rating, Barnyardgrass: 0
[22]; [29]
  Plant response rating, Foxtail, Giant: 0
[22]; [30]
  Plant response rating, Foxtail, Giant: 0
[23]; [29]
  Plant response rating, Surinam grass: 0
[23]; [30]
  Plant response rating, Surinam grass: 0
[24]; [29]
  Plant response rating, Crabgrass: 0
[24]; [30]
  Plant response rating, Crabgrass: 0
[25]
  Plant response rating, Velvetleaf: 0
Corn (Zea mays) [26]; [29]
  Plant response rating, Corn: 0
Corn (Zea mays) [26]; [30]
  Plant response rating, Corn: 0
Wild oat (Avena fatua)
  Plant response rating, Wild Oat: 0
